Measured values as given in article PMC9005681, “Use of AD Informer Set compounds to explore validity of novel targets in Alzheimer's disease pathology” (Alzheimer's & Dementia : Translational Research & Clinical …, 2022).
Entries after “also recorded” stand apart in the source; their conditions may differ. Where two headings read alike, the source gives them in different places.

How the values were obtained:
[1] = aqueous, neutral pH (7.4); cited from earlier work
[2] = Plasma plus brain concentrations at 1 h after IV dose; assay type: in vivo; conditions: mouse, brain and plasma, CD1 mice, IV 10 mg/kg
Procedure: Compounds with acceptable PK were dosed IV at 10 mg/kg and plasma plus brain
concentrations measured at 1h in CD1 mice (3 mice per cohort, Table 2). […]

[3] = biological target: T1, cloned human or rodent CNS receptors, channels, and transporters (PDSP panel) (Homo sapiens, UniProt P11229); assay: PDSP GPCR panel primary binding assays at 10 μM; conditions: primary assay
T1 construct: expressed in transfected cells
T1 sequence (P11229 1-460): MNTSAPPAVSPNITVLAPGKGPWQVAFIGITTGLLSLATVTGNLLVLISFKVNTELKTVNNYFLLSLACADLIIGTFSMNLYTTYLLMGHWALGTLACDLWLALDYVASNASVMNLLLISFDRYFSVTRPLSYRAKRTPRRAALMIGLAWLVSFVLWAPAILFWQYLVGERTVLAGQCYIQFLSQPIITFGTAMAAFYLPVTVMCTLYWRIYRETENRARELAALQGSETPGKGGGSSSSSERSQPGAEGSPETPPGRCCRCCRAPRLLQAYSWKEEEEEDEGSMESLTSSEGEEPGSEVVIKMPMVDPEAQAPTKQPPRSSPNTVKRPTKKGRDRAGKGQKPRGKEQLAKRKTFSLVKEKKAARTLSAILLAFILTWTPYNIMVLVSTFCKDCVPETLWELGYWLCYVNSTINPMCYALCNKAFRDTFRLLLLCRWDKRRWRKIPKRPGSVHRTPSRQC
Method in brief: (§1)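 Secondary binding curves (11 points, triplicate) were run at targets where the 10 μM primary screen, done in quadruplicate, displaced over 50% of radio-labelled standard ligand on average. Primary screening covered 46–47 cloned human or rodent CNS targets; H3, PBR and GABAA were not followed up.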

[4] = biological target: T2, cloned human or rodent CNS receptors, channels, and transporters (PDSP panel) (Rattus norvegicus, UniProt Q5U3Y7); assay: PDSP GPCR panel primary binding assays at 10 μM; conditions: Sigma 2, primary assay; for Inhibition 1: replicate 1; for Inhibition 2: replicate 2; for Inhibition 3: replicate 3; for Inhibition 4: replicate 4
T2 construct: expressed in transfected cells
T2 sequence (Q5U3Y7 1-176): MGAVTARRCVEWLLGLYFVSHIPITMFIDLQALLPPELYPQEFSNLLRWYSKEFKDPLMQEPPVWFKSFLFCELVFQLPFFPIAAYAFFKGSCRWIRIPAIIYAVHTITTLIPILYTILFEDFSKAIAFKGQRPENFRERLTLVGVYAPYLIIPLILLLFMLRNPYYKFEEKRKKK
Method in brief: as §1

[5] = biological target: T3, cloned human or rodent CNS receptors, channels, and transporters (PDSP panel) (Cavia porcellus, UniProt Q60492); assay: PDSP GPCR panel primary binding assays at 10 μM; conditions: Sigma 1, primary assay; for Inhibition 1: replicate 1; for Inhibition 2: replicate 2; for Inhibition 3: replicate 3; for Inhibition 4: replicate 4
T3 construct: expressed in transfected cells
T3 sequence (Q60492 whole entry): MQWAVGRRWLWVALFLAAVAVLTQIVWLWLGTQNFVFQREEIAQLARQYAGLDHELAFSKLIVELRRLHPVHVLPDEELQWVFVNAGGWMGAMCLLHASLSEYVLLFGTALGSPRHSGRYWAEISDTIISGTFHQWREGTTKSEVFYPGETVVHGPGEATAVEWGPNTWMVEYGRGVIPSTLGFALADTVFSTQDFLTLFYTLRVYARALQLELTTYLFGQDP
Method in brief: as §1

[6] = biological target: T4, cloned human or rodent CNS receptors, channels, and transporters (PDSP panel) (Homo sapiens, UniProt P35462); assay: PDSP GPCR panel primary binding assays at 10 μM; conditions: primary assay
T4 construct: expressed in transfected cells
T4 sequence (P35462 whole entry): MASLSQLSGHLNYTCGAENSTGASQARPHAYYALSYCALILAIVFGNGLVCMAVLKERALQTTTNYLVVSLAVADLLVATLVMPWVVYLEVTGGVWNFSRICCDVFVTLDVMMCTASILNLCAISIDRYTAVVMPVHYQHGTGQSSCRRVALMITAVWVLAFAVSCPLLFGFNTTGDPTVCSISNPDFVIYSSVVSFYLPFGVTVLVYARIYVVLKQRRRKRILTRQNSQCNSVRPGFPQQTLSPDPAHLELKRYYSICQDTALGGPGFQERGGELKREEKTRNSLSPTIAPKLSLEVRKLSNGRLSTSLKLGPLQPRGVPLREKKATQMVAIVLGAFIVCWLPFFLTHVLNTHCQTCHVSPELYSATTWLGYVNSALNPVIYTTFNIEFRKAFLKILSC
Method in brief: as §1

[7] = biological target: T5, cloned human or rodent CNS receptors, channels, and transporters (PDSP panel) (Homo sapiens, UniProt P41595); assay: PDSP GPCR panel primary binding assays at 10 μM; conditions: primary assay
T5 construct: expressed in transfected cells
T5 sequence (P41595 whole entry): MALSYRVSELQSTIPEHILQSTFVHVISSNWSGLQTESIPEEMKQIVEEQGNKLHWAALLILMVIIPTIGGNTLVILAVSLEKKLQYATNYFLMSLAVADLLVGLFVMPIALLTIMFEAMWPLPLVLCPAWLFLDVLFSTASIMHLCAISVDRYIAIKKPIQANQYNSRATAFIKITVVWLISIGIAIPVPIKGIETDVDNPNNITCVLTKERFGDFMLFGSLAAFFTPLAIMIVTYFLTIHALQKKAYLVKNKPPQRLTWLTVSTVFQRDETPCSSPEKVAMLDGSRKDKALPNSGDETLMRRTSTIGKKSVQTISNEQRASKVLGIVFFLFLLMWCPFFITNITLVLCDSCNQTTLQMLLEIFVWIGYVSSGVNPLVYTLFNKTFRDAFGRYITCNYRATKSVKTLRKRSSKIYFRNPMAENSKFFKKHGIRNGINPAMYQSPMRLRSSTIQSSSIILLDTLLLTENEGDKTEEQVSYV
Method in brief: as §1

[8] = biological target: T6, cloned human or rodent CNS receptors, channels, and transporters (PDSP panel) (Homo sapiens, UniProt P21918); assay: PDSP GPCR panel primary binding assays at 10 μM; conditions: primary assay
T6 construct: expressed in transfected cells
T6 sequence (P21918 whole entry): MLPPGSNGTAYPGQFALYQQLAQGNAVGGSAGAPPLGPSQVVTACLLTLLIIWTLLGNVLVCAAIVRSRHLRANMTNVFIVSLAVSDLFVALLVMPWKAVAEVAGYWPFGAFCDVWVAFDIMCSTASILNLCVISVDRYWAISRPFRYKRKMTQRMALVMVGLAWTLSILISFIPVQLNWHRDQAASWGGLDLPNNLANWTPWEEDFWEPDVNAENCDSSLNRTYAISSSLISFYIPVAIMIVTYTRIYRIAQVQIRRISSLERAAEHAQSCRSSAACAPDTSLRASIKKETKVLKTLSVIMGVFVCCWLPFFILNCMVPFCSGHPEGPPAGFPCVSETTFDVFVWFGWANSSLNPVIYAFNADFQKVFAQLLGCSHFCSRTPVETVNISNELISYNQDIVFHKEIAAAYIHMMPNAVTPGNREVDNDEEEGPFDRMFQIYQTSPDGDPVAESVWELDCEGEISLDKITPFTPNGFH
Method in brief: as §1

[9] = test system: BV2 (mouse microglia) immortalized cell line; conditions: 10 μM, murine immortalized microglial cells; cited from earlier work
[10] = test system: BV2 (mouse microglia) immortalized cell line; conditions: 10 μM, murine immortalized microglial cells; cited from earlier work; remark: listed apart in the source
dopamine transporter = biological target: T7, dopamine transporter (Homo sapiens, UniProt Q01959); assay: PDSP secondary binding, dopamine transporter; parameters: species or system human or rodent
T7 construct: expressed in transfected cells
T7 sequence (Q01959 whole entry): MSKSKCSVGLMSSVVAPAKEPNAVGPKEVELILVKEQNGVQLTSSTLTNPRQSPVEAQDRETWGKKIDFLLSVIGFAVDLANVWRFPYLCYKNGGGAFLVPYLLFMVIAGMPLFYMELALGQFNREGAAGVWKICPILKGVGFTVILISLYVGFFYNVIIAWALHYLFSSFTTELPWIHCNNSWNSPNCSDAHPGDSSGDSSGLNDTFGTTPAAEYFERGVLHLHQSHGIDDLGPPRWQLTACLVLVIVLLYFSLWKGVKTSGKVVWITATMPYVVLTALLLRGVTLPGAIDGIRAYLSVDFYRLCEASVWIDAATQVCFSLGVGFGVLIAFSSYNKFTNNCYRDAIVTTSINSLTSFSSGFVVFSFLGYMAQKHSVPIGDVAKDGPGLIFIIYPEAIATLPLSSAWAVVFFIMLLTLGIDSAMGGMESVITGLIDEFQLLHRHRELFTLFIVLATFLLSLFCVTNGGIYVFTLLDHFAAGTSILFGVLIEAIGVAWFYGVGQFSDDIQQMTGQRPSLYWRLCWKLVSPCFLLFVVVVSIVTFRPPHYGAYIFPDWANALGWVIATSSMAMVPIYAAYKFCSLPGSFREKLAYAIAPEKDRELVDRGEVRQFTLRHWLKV
Procedure: GPCR panel: Screening against the receptors within the PDSP panel offers an assessment of off-target pharmacological activity at cloned human or rodent CNS receptors, channels, and transporters that could confound CNS-related phenotypes. A total of 46–47 primary binding assays were run in quadruplicate on these compounds at 10 μM, with follow-up secondary binding assays in 11-point dose-response in triplicate for select compounds versus select receptors. Secondary binding assays were executed for all receptors where test compound displaced an average of >50% of radio-labeled standard ligand. As an exception, no secondary assays were carried out for H3, PBR, or GABAA. […]

[11] = test system: HMC3 (human microglia) immortalized cell line; conditions: 10 μM, human immortalized microglial cells; cited from earlier work
[12] = test system: phospho-Tau (pTau, Thr231) and total Tau; assay: p-tau and t-tau in iPSC-derived neuron lysates, multiplexed ELISA; assay type: cell-based, human; conditions: 48 hours, both doses (0.1, 1 μM)
Procedure: Measurements of phospho-Tau (pTau, Thr231) and total Tau peptides were measured from neuronal lysates, also using a multiplexed ELISA assay. Using this assay, we measured the phospho:total tau ratio for each condition compared to vehicle (DMSO) treatment as well as the individual changes in phospho and total Tau peptides. Finally, all neuronal samples were examined morphologically for evidence of cytotoxicity.

[13] = Receptor M1, 10 μM, mean of Inhibition 1-4
[14] = Receptor D3, 10 μM, mean of Inhibition 1-4
[15] = Receptor 5-HT2B, 10 μM, mean of Inhibition 1-4
[16] = Receptor D5, 10 μM, mean of Inhibition 1-4

O=C(NC1CC1)C(=O)C(Cc1ccccc1)NC(=O)[C@H]1CCC(=O)N1Cc1ccccc1 (stereo partly drawn) [UNC10302676A, ABT-957 (Alicapistat)]
Kinetic solubility [1]: 176.5 µM | Kp at 1 h [2]: 0.015 | Mean % ([3]; M1, mean inhibition): -5.83% | Inhibition 1 ([3]; M1, replicate 1): 12.89% | Inhibition 2 ([3]; M1, replicate 2): -15.33% | Inhibition 3 ([3]; M1, replicate 3): -17.78% | Inhibition 4 ([3]; M1, replicate 4): -3.1% | Inhibition 1 [4]: 16.59% | Inhibition 2 [4]: 3.8% | Inhibition 3 [4]: 13.22% | Inhibition 4 [4]: -4.38% | Inhibition 1 [5]: 5.01% | Inhibition 2 [5]: -7.02% | Inhibition 3 [5]: -4.4% | Inhibition 4 [5]: -3.65% | Mean % ([6]; D3, mean inhibition): 10.85% | Inhibition 1 ([6]; D3, replicate 1): 10.26% | Inhibition 2 ([6]; D3, replicate 2): -6.41% | Inhibition 3 ([6]; D3, replicate 3): 23.48% | Inhibition 4 ([6]; D3, replicate 4): 16.06% | Mean % ([7]; 5-HT2B, mean inhibition): -32.15% | Inhibition 1 ([7]; 5-HT2B, replicate 1): -14.32% | Inhibition 2 ([7]; 5-HT2B, replicate 2): -33.19% | Inhibition 3 ([7]; 5-HT2B, replicate 3): -45.78% | Inhibition 4 ([7]; 5-HT2B, replicate 4): -35.29% | Mean % ([8]; D5, mean inhibition): -6.38% | Inhibition 1 ([8]; D5, replicate 1): 0% | Inhibition 2 ([8]; D5, replicate 2): 3.82% | Inhibition 3 ([8]; D5, replicate 3): -18.95% | Inhibition 4 ([8]; D5, replicate 4): -10.39%

CCCCNc1ncc2c(-c3ccc(CN4CCN(C)CC4)cc3)cn([C@H]3CC[C@H](O)CC3)c2n1 [UNC2025C, UNC2025]
Kinetic solubility [1]: 43.4 µM | Mouse microglial cytotoxicity at 10 μM (<70% control) [9]: Y (The compound was found to be cytotoxic (cell count threshold: <70% control) when murine immortalized microglial cells were dosed at 10 μM (Y: yes)) | Inhibition of mouse microglial phagocytosis at 10 μM (<70% control) [10]: Y (The compound was found to inhibit phagocytosis (response threshold: <70% control) when murine immortalized microglial cells were dosed at 10 μM (Y: yes)) | Ki (dopamine transporter; Receptor DAT, secondary assay, printed as LogKi (negative), read-out: LogKi 1 (converted)): 9770 nM | Ki (dopamine transporter; Receptor DAT, secondary assay, read-out: Ki (nM) 1): 9870 nM | Ki (dopamine transporter; calculated Ki, secondary binding assay, read-out: Ki dopamine transporter): 9900 nM | Kp at 1 h [2]: 1.96 | Inhibition 1 ([3]; Receptor M1, 10 μM): 58.8% | Inhibition 2 ([3]; Receptor M1, 10 μM): 42.24% | Inhibition 3 ([3]; Receptor M1, 10 μM): 30.2% | Inhibition 4 ([3]; Receptor M1, 10 μM): 36.41% | Mean % [3, 13]: 41.91% | Inhibition 1 ([6]; Receptor D3, 10 μM): 18.68% | Inhibition 2 ([6]; Receptor D3, 10 μM): 25.04% | Inhibition 3 ([6]; Receptor D3, 10 μM): 10.39% | Inhibition 4 ([6]; Receptor D3, 10 μM): 7.11% | Mean % [6, 14]: 15.31% | Inhibition 1 ([7]; Receptor 5-HT2B, 10 μM): 1.21% | Inhibition 2 ([7]; Receptor 5-HT2B, 10 μM): 8.76% | Inhibition 3 ([7]; Receptor 5-HT2B, 10 μM): -7.6% | Inhibition 4 ([7]; Receptor 5-HT2B, 10 μM): 18.41% | Mean % [7, 15]: 5.2% | Inhibition 1 ([8]; Receptor D5, 10 μM): 6.22% | Inhibition 2 ([8]; Receptor D5, 10 μM): 2.13% | Inhibition 3 ([8]; Receptor D5, 10 μM): 5.78% | Inhibition 4 ([8]; Receptor D5, 10 μM): 14.39% | Mean % [8, 16]: 7.13% | Inhibition of human microglial phagocytosis at 10 μM (<70% control) [11]: Y (The compound was found to inhibit phagocytosis (response threshold: <70% control) when human immortalized microglial cells were dosed at 10 μM (Y: yes))

MDL 28170 [UNC10302675A]
Mean % ([3]; M1, mean inhibition): -11.2% | Inhibition 1 ([3]; M1, replicate 1): -2.73% | Inhibition 2 ([3]; M1, replicate 2): -6.87% | Inhibition 3 ([3]; M1, replicate 3): -20.6% | Inhibition 4 ([3]; M1, replicate 4): -14.58% | Inhibition 1 [4]: 37.24% | Inhibition 2 [4]: 22.17% | Inhibition 3 [4]: 24.38% | Inhibition 4 [4]: 22.39% | Inhibition 1 [5]: 35.86% | Inhibition 2 [5]: 2.45% | Inhibition 3 [5]: -0.62% | Inhibition 4 [5]: -14.57% | Mean % ([6]; D3, mean inhibition): -4.37% | Inhibition 1 ([6]; D3, replicate 1): 0.36% | Inhibition 2 ([6]; D3, replicate 2): 5.37% | Inhibition 3 ([6]; D3, replicate 3): -17.38% | Inhibition 4 ([6]; D3, replicate 4): -5.81% | Mean % ([7]; 5-HT2B, mean inhibition): -23.86% | Inhibition 1 ([7]; 5-HT2B, replicate 1): -2.15% | Inhibition 2 ([7]; 5-HT2B, replicate 2): -34.45% | Inhibition 3 ([7]; 5-HT2B, replicate 3): -28.58% | Inhibition 4 ([7]; 5-HT2B, replicate 4): -30.26% | Mean % ([8]; D5, mean inhibition): 3.1% | Inhibition 1 ([8]; D5, replicate 1): 35% | Inhibition 2 ([8]; D5, replicate 2): -0.46% | Inhibition 3 ([8]; D5, replicate 3): -13.75% | Inhibition 4 ([8]; D5, replicate 4): -8.4%

Cl.NC(=O)c1cnc(N[C@@H]2CCCC[C@@H]2N)nc1Nc1cccc(-n2nccn2)c1 [UNC10302682A, P505-15 (PRT06207 HCl)]
Kinetic solubility [1]: 118.2 µM | Inhibition of mouse microglial phagocytosis at 10 μM (<70% control) [10]: Y (The compound was found to inhibit phagocytosis (response threshold: <70% control) when murine immortalized microglial cells were dosed at 10 μM (Y: yes)) | Kp at 1 h [2]: 0.08 | Levels of p-tau and t-tau [12]: reduction in the levels of p‐tau and t‐tau; also recorded: reduced p‐tau and t‐tau peptides to the same extent | Inhibition 1 ([3]; Receptor M1, 10 μM): 35.84% | Inhibition 2 ([3]; Receptor M1, 10 μM): 24.74% | Inhibition 3 ([3]; Receptor M1, 10 μM): 0.85% | Inhibition 4 ([3]; Receptor M1, 10 μM): 16.46% | Mean % [3, 13]: 19.47% | Inhibition 1 ([6]; Receptor D3, 10 μM): 15.21% | Inhibition 2 ([6]; Receptor D3, 10 μM): 7.11% | Inhibition 3 ([6]; Receptor D3, 10 μM): 21.57% | Inhibition 4 ([6]; Receptor D3, 10 μM): 8.07% | Mean % [6, 14]: 12.99% | Inhibition 1 ([7]; Receptor 5-HT2B, 10 μM): 19.24% | Inhibition 2 ([7]; Receptor 5-HT2B, 10 μM): 3.3% | Inhibition 3 ([7]; Receptor 5-HT2B, 10 μM): -9.28% | Inhibition 4 ([7]; Receptor 5-HT2B, 10 μM): -13.48% | Mean % [7, 15]: -0.06% | Inhibition 1 ([8]; Receptor D5, 10 μM): 21.97% | Inhibition 2 ([8]; Receptor D5, 10 μM): 17.01% | Inhibition 3 ([8]; Receptor D5, 10 μM): 7.24% | Inhibition 4 ([8]; Receptor D5, 10 μM): 14.53% | Mean % [8, 16]: 15.19% | Inhibition of human microglial phagocytosis at 10 μM (<70% control) [11]: Y (The compound was found to inhibit phagocytosis (response threshold: <70% control) when human immortalized microglial cells were dosed at 10 μM (Y: yes))
